Results reported in ChEMBL document CHEMBL1201862, “PubChem BioAssay data set” (2004).
Activity calls are given as the source filed them.

Experiments:
[1] = Trypanosoma cruzi growth suppression in host cells – NIH3T3 host cells, beta-gal luminescence, confirmation (AID 2044); format: functional, cell-based;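 note: intracellular parasites grown in NIH/3T3 mouse fibroblasts as host cells; luminescent beta-galactosidase reporter signal from transgenic T. cruzi replicating inside host cells; inhibitors lower the luminescence signal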
Jurkat = test: blockers of NF-kB activation in T cells – Jurkat, luciferase reporter, luminescence, B- and T-cell, dose response (AID 489004); format: functional, cell-based; conditions: Homo sapiens;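 note: NF-kB luciferase reporter Jurkat cells stimulated with PMA plus ionomycin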
[2] = HPDE-C7 pancreatic duct cell viability loss – fluorescence, HTS (AID 430); format: functional, cell-based; conditions: Homo sapiens
Melanocortin receptor 4 = Melanocortin receptor 4 (Homo sapiens, UniProt P32245); test: inhibitors of MC4R cAMP signaling – cell-based, TR-FRET, biased antagonists, dose response (AID 602298); format: functional;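 note: antagonist potency against agonist-stimulated cAMP production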
[3] = viability loss of HPDE-C7K cells – cell-based, fluorescence, HTS, primary screen (AID 431); format: functional; conditions: Homo sapiens
[4] = viability of PTEN-deleted HCT116 cells – cell-based, HCT116 PTEN knockout, dose response (AID 1047); format: functional;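 note: HCT116 colon tumor cells with PTEN knocked out; cells exposed to compound for 60 hours before readout; potency for loss of cell viability measured by luminescence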
[5] = cAMP pathway inhibition in counterscreen cell line – TR-FRET cAMP detection, counter-screen for MC4R biased antagonist project, dose response (AID 602305); format: functional, cell-based;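 note: U2OS cells stimulated with forskolin near its EC80 as the cAMP inducer; potency is for inhibition of forskolin-stimulated cAMP signaling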
[6] = HEK-293T viability loss, compound-treated – cell-based, uHTS hits, cytotoxicity control for B/T-cell NF-kB inhibitor project, dose response (AID 489019); format: functional;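 note: IC50 reflects cytotoxicity as loss of cell viability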
[7] = viability of HCT116 lacking mutant beta-catenin – cell-based, human colon tumor, dose response (AID 1045); format: functional;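 note: HCT116 colon tumor cells with beta catenin knocked out; cells exposed to compound for 60 hours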
[8] = NIH3T3 cell viability loss – ATP luminescence, mouse fibroblasts, counter-screen, dose response (AID 2010); format: functional, cell-based;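 note: cells exposed to compound for about 90 hours before reading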
CAAX prenyl protease 2 = target: T1, CAAX prenyl protease 2 (Homo sapiens, UniProt Q9Y256); test: inhibition of Ras-converting CAAX protease Rce1 – biochemical, yeast membranes, quenched-peptide fluorescence, cherry-pick, dose response (AID 588849)
T1 sequence (Q9Y256 whole entry): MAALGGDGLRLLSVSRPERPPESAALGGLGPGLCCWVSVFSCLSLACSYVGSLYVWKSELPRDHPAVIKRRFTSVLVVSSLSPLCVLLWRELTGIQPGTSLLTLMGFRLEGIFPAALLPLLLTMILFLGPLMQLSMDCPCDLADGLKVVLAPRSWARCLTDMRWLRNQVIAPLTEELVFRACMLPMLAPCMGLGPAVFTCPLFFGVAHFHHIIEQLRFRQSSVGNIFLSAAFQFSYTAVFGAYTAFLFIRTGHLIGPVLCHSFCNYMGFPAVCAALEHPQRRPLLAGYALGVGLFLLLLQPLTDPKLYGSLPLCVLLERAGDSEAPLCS

Trypsin = Trypsin (Sus scrofa, UniProt P00761); test: trypsin protease activity blockade – biochemical, quenched peptide fluorescence, cherry-pick, selectivity assay for Rce1 protease inhibitor project, dose response (AID 488789)
CAAX prenyl protease 1 = CAAX prenyl protease 1 (Saccharomyces cerevisiae S288c, UniProt P47154); test: yeast CAAX protease Ste24 inhibition – biochemical, S. cerevisiae, plate reader, cherry-pick, dose response (AID 488815)
[9] = Luminescence Cell-Based Dose Retest to Confirm Inhibitors of Cancer Stem Cells. [Related pubchem assays (depositor defined):AID2717, AID2721]; format: functional; conditions: Homo sapiens
[10] = target: T2, Ubiquitin-conjugating enzyme E2 N (Homo sapiens, UniProt P61088); format: functional;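 note: Dose-response confirmation in a TR-FRET assay detecting UBC13-driven polyubiquitin chain formation, inhibition measured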
T2 sequence (P61088 whole entry): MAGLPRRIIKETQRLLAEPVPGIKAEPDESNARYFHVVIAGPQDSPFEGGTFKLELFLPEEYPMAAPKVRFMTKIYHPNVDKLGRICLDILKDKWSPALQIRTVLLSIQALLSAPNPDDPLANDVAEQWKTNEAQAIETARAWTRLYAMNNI

Protein RecA = target: T3, Protein RecA (Mycobacterium tuberculosis, UniProt P9WHJ3); test: Fluorescence Cell-Free Homogeneous Dose Retest to Identify Inhibitors of RecA-Intein Splicing Activity. [Related pubchem assays (depositor defined):AID2097, AID2223, AID489010, AID492950]; format: functional
T3 sequence (P9WHJ3 whole entry): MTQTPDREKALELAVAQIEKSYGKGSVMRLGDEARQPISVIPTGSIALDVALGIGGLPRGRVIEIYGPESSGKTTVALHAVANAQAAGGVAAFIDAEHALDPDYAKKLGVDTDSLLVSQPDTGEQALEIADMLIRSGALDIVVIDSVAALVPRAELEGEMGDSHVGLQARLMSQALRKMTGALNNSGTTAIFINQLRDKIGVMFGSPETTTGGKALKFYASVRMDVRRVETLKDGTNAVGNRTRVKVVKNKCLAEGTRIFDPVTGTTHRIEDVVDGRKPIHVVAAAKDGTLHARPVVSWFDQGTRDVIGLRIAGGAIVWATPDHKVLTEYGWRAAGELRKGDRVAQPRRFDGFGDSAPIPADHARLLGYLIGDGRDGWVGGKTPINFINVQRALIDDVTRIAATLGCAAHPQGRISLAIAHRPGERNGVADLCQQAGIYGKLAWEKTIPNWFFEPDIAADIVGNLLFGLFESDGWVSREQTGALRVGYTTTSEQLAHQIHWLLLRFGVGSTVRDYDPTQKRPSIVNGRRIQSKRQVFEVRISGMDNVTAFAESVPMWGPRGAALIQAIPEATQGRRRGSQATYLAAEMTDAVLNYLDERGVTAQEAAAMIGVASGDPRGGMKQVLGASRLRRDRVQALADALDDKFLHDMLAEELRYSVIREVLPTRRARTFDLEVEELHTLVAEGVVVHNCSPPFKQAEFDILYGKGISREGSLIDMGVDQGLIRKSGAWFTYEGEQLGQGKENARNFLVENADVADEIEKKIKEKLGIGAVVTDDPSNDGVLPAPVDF

[11] = target: T4, Replicative DNA helicase DnaB (Mycobacterium tuberculosis, UniProt P9WMR3); test: DnaB intein splicing inhibitors, dose response, biochemical, cell-free fluorescence (AID 449749); format: functional
T4 sequence (P9WMR3 whole entry): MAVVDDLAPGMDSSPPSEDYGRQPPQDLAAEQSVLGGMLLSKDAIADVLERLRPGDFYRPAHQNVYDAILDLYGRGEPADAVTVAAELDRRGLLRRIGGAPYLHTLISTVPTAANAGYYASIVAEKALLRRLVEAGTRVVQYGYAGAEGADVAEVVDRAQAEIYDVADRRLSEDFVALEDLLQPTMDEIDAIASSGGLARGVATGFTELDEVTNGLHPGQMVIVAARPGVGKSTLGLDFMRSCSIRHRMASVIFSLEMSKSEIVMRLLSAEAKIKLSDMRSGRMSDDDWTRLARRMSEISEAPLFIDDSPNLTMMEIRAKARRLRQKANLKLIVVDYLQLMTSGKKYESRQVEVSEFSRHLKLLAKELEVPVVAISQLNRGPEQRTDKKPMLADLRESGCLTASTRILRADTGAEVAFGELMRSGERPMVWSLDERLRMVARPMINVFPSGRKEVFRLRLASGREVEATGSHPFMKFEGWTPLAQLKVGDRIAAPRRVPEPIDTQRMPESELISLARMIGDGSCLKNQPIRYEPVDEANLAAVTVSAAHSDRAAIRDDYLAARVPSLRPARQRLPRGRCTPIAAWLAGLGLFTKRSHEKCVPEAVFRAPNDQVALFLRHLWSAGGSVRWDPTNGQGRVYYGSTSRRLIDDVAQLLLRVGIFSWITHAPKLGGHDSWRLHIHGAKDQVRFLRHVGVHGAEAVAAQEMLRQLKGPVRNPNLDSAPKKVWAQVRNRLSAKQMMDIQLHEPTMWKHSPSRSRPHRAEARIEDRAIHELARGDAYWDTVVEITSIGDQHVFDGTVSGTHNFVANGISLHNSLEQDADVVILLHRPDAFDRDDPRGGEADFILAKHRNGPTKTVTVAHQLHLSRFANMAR

[12] = fluconazole-exposed Candida albicans growth modulators – fluorescence, retest, confirmation (AID 2467); format: functional, cell-based
[13] = NIH-3T3 fibroblast cytotoxicity, dose response, cytotoxicity control, cell-based, fluorescence, Alamar Blue, secondary assay (AID 2327); format: functional;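 note: NIH-3T3 mouse fibroblasts cultured with fluconazole at 8 µg/mL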
[14] = target: T5, Tyrosine-protein phosphatase non-receptor type 22 (Homo sapiens, UniProt Q9Y2R2); test: inhibition of lymphoid tyrosine phosphatase LYP – biochemical, pCAP fluorogenic substrate, fluorescence, set 3, SAR follow-up (AID 449727); format: functional
T5 sequence (Q9Y2R2 whole entry): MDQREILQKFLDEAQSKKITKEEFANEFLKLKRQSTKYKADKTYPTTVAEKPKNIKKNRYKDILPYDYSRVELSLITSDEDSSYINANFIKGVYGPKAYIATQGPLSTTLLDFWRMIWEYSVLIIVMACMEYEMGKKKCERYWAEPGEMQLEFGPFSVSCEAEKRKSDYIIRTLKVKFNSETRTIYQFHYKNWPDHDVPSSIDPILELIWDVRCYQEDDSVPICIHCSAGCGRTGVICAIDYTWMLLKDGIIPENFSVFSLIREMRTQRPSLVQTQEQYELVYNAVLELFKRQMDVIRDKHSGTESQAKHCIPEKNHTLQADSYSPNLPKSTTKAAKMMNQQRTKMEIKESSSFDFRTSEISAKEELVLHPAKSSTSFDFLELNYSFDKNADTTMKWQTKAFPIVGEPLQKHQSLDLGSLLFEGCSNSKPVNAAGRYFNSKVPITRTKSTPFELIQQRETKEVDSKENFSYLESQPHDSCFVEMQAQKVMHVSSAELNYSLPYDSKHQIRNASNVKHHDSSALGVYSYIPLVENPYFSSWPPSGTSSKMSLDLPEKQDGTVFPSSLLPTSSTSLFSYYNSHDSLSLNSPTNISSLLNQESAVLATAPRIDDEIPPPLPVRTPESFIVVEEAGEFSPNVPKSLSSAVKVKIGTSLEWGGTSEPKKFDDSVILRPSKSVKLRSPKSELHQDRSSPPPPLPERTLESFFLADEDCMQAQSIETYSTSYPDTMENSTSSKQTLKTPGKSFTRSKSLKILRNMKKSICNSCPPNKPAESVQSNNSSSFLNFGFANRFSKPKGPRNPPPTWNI

[15] = target: Dual specificity protein phosphatase 3 (Homo sapiens, UniProt P51452); test: SAR VHR1 Fluorescent Assay for In Vitro dose response studies Set 2. [Related pubchem assays (depositor defined):AID1654, AID1661, AID1878]; format: functional
[16] = target: Tyrosine-protein phosphatase non-receptor type 12 (Homo sapiens, UniProt Q05209); test: SAR Selectivity Analysis of small molecule inhibitors of PEST using pCAP in a fluorescence assay. [Related pubchem assays (depositor defined):AID1779, AID1784, AID2135]; format: functional
[17] = target: T5, Tyrosine-protein phosphatase non-receptor type 22; test: SAR LYP1 Fluorescent Assay using OMFP substrate for In Vitro dose response studies - Set 3. [Related pubchem assays (depositor defined):AID1779, AID1784, AID2140, AID2686]; format: functional
[18] = target: T6, Dual specificity protein phosphatase 6 (Rattus norvegicus, UniProt Q64346); format: functional;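 note: confirmatory in vitro dose-response testing of MKP-3 inhibition; recombinant His-tagged MKP-3 made in E. coli BL21 with OMFP substrate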
T6 sequence (Q64346 whole entry): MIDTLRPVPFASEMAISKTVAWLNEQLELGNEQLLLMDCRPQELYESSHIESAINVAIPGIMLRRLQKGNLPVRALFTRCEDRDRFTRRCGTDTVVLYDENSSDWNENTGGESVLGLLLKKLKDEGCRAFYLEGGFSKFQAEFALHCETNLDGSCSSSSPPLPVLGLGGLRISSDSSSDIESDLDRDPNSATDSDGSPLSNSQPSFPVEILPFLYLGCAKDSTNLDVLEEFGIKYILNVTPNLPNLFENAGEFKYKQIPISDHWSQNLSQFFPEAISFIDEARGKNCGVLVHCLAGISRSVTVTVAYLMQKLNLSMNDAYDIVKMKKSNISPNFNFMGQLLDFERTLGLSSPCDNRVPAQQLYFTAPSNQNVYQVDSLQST

[19] = target: T7, Tyrosine-protein phosphatase non-receptor type 7 (Homo sapiens, UniProt P35236); test: redox-active compounds inhibiting HePTP phosphatase – biochemical, fluorescence, mechanism study (AID 2068); format: functional
T7 sequence (P35236 whole entry): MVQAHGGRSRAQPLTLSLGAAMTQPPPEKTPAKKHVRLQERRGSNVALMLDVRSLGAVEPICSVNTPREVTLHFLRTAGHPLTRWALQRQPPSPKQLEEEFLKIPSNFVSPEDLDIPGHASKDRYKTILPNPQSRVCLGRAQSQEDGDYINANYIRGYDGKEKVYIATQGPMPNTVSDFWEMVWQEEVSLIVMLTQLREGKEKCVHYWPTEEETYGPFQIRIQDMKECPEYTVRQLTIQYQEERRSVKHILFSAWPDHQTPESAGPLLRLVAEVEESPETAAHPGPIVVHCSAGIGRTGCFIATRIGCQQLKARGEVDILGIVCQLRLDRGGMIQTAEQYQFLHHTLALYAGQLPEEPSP

[20] = target: T7, Tyrosine-protein phosphatase non-receptor type 7; test: inhibition of hematopoietic tyrosine phosphatase HePTP – biochemical, set 2, SAR follow-up (AID 449736); format: functional

Sequence of CAAX prenyl protease 1 (P47154 whole entry): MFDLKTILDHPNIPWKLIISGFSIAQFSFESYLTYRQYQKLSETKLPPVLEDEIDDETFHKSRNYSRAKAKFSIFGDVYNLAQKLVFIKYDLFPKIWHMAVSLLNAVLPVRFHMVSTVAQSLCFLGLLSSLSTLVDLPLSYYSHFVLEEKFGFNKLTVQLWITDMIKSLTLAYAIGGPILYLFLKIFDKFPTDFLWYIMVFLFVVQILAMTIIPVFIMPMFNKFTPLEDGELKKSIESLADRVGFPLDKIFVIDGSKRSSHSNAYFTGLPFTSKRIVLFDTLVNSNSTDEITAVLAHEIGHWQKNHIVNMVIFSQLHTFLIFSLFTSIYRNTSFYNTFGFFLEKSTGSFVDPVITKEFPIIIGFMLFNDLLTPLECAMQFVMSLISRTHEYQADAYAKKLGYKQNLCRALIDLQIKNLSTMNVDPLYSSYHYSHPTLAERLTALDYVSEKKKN
Sequence of Tyrosine-protein phosphatase non-receptor type 12 (Q05209 whole entry): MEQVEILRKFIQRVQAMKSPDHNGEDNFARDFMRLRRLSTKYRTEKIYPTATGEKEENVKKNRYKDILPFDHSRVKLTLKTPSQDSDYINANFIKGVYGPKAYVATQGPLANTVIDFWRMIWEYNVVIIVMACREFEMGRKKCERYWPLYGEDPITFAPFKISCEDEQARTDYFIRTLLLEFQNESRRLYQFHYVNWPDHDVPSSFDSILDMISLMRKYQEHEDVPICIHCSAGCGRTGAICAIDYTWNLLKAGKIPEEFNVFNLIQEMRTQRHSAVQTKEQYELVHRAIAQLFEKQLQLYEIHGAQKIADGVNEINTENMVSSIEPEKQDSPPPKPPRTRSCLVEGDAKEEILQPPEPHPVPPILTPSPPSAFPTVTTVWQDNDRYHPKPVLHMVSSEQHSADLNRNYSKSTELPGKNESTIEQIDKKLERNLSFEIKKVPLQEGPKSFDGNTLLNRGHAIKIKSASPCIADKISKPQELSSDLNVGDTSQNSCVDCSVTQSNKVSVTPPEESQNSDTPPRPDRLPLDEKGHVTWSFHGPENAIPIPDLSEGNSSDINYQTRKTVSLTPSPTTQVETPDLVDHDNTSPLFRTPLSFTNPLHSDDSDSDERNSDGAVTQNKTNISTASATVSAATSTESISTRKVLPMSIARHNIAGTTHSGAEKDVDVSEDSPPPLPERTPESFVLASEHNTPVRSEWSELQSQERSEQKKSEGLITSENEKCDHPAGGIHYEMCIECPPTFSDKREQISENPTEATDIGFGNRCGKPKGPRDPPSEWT
Sequence of Trypsin (P00761 whole entry): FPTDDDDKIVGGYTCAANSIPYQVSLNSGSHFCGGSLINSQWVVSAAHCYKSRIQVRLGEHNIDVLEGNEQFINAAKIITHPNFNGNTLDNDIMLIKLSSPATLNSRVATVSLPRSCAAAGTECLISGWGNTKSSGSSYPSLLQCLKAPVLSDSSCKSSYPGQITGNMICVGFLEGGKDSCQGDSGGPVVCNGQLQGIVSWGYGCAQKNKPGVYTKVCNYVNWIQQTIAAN
Sequence of Melanocortin receptor 4 (P32245 whole entry): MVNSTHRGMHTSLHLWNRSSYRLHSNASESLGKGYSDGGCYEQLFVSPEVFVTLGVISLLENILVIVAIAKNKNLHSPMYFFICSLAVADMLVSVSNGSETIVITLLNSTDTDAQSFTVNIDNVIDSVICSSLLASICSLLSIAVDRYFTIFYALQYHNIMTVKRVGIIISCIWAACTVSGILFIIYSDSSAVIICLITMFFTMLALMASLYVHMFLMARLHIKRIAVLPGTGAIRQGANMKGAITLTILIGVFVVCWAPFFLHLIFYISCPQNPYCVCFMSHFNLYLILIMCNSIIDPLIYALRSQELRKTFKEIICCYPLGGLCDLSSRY
Sequence of Dual specificity protein phosphatase 3 (P51452 whole entry): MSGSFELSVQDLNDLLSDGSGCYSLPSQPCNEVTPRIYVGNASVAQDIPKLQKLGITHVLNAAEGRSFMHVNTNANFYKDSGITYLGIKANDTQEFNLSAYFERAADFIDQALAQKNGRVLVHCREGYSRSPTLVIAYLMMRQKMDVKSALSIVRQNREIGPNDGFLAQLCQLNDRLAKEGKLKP

N=c1c2c(-c3ccccc3)c(-c3ccccc3)n(Cc3ccccc3)c2ncn1CCCn1ccnc1
EC50 [1]: 2.44 µM (active) | IC50 (Jurkat): 8.3 µM (active) | EC50 [2]: 5.47 µM (active) | IC50 (Melanocortin receptor 4): > 64.6 µM (inactive) | EC50 [3]: 17 µM (active) | EC50 [4]: 0.85 µM (active) | IC50 [5]: > 64.6 µM (inactive) | IC50 [6]: 43.2 µM (inactive) | EC50 [7]: 0.613 µM (active) | EC50 [8]: 7.16 µM (active)

CCc1ccc(NC(=O)c2cnc(N3CCN(c4ccccn4)CC3)c3ccccc23)cc1
EC50 [1]: 3.14 µM (active) | AC50 (CAAX prenyl protease 2): 29.7 µM (active) | AC50 (Trypsin): 87.7 µM (active) | AC50 (CAAX prenyl protease 1): 9.95 µM (active) | EC50 [8]: > 30 µM (not active)

CCN(Cc1ccccc1)S(=O)(=O)c1ccc(C(=O)N(CCCN(C)C)c2nc3cc(C)cc(C)c3s2)cc1
AC50 [9]: 4.44 µM (active) | IC50 [10]: > 20 µM (inactive) | AC50 (CAAX prenyl protease 1): 17 µM (active) | EC50 (Protein RecA): 17.7 µM (active) | AC50 [11]: 7.04 µM (active)

CN(C)c1ccc(-c2n(C)c3ccccc3[n+]2C)cc1
EC50 [1]: 0.582 µM (active) | EC50 [12]: 2.18 µM (active) | IC50 (Jurkat): > 80 µM (inactive) | IC50 [6]: > 80 µM (inactive) | EC50 [8]: 18.1 µM (active) | EC50 [13]: > 150 µM (inactive)

CCOc1cc(/C=C2/S/C(=N\c3ccccc3)NC2=O)cc(I)c1OCC(=O)O
IC50 [14]: 30.2 µM (active) | IC50 [15]: 33.8 µM (active) | IC50 [16]: 7.6 µM (active) | IC50 [17]: 56.6 µM (active) | IC50 [18]: > 100 µM (inactive) | IC50 [19]: 6.03 µM (active) | IC50 [20]: 2.33 µM (active)
